From article PMC3773341 (Biology Open, 2013)

What was measured:
[1] = target: T1, BK channel (large-conductance Ca2+-activated K+ channel, BKCa, KCa1.1) (Homo sapiens, UniProt Q12791); assay: whole-cell patch clamp of endogenous BK current in LNCaP cells; current identity confirmed by si-hBK; assay type: cell-based
T1 construct: gene KCNMA1

[2] = target: T1, BK channel (large-conductance Ca2+-activated K+ channel, BKCa, KCa1.1); assay: whole-cell patch clamp of T-type-activated BK current in LNCaP-α1H cells ([…] in LNCaP-NE cells); assay type: cell-based

T1 sequence (Q12791 whole entry): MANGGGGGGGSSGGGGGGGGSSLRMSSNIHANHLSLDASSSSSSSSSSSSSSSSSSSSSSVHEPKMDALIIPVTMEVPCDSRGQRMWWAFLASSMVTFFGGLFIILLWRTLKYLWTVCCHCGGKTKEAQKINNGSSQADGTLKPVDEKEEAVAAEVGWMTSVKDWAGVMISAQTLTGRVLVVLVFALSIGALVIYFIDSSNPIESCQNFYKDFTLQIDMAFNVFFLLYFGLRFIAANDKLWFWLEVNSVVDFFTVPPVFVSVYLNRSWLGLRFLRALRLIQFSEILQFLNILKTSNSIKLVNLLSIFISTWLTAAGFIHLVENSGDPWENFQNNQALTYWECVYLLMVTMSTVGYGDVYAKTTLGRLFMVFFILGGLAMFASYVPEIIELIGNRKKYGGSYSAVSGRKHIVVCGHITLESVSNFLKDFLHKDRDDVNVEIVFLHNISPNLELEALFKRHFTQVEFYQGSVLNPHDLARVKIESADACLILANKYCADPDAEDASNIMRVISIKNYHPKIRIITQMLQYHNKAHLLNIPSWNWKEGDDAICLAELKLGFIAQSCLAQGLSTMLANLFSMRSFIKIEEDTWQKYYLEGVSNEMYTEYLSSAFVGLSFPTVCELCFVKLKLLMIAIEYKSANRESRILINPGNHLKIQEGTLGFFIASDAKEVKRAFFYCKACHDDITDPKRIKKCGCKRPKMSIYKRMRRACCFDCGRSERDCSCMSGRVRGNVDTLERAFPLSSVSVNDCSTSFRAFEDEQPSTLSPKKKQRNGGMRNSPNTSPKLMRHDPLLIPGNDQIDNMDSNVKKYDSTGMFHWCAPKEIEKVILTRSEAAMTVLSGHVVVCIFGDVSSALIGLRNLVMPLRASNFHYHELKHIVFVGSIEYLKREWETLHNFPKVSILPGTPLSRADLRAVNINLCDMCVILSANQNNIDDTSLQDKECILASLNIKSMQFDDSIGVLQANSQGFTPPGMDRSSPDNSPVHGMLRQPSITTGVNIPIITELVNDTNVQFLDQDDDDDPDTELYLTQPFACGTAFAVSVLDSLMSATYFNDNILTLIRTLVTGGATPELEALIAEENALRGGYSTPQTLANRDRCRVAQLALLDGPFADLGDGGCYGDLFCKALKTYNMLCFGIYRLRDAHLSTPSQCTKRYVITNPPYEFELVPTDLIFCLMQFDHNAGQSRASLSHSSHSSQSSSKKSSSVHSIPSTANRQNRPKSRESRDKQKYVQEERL

CC(C)(O)[C@H]1O[C@H]2CC[C@@]3(C)[C@@](O)(CC[C@H]4Cc5c([nH]c6ccccc56)[C@@]43C)C2=CC1=O [Pax, paxillin]
whole-cell patch clamp of endogenous BK current in LNCaP cells; current identity [1]: 1 µM

CC[N+](CC)(CC)CC [TEA, tetraethyl ammonium]
IC50 [2]: 1140 ± 200 µM
